{"source": "patent US20210196678A1", "about": "“SELECTIVE ANDROGEN RECEPTOR DEGRADER (SARD) LIGANDS AND METHODS OF USE THEREOF” (University of Tennessee Research Foundation, priority 2018, published 2021)", "key": {"[1]": {"assay": "SARD compound serum concentrations in Hershberger rats (LC-MS/MS)", "conditions": "for Conc of 1065: serum of individual rats, 24-30 hours after the last dose, standards in nM"}, "[2]": {"assay": "RLM metabolism (half-life)", "type": "in vitro ADME", "conditions": "rat liver microsomes half-life", "description": "(§1) Table 4 reports the in vitro efficacy (transactivation/degradation) and metabolism (rat liver microsomes (RLM) and human LM (HLM) half-lives) data, in vivo efficacy (S.V. and prostate % diff in rats) and serum concentration in rats for all the compounds in the 20 mg/kg Hershberger experiment. […]."}, "[3]": {"assay": "HLM metabolism (half-life)", "type": "in vitro ADME, human", "conditions": "for HLM Metabolism (H.L. min): human liver microsomes half-life", "description": "as §1"}, "PR": {"target": "T1, PR (Homo sapiens, UniProt P06401)", "T1 sequence (P06401 1-933)": "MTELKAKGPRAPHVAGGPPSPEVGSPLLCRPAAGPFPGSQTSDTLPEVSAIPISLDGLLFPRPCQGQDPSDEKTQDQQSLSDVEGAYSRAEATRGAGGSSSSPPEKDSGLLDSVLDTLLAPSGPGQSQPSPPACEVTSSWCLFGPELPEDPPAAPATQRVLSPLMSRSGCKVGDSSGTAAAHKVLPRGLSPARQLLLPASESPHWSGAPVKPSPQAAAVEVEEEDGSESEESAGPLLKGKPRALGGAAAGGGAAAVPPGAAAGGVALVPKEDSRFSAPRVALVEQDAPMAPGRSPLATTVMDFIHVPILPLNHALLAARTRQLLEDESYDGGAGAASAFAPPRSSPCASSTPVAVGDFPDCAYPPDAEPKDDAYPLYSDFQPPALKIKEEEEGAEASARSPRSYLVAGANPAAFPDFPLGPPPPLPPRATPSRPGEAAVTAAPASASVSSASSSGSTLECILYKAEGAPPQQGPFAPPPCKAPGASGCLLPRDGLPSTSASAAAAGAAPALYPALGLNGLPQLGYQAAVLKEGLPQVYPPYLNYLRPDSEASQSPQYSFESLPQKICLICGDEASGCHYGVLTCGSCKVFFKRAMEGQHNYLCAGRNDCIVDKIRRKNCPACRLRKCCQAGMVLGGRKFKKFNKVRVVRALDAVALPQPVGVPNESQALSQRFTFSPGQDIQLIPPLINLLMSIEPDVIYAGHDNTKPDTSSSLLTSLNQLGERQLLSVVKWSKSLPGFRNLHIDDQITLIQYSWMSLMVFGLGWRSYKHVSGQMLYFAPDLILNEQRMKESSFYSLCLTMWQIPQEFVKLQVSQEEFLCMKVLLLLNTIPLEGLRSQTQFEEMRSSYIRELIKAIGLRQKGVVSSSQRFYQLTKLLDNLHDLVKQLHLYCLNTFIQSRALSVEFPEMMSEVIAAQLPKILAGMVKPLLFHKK", "conditions": "positive control"}, "[4]": {"test_system": "Intact Sprague Dawley rats", "assay": "Hershberger assay, seminal vesicles and prostate weights", "type": "in vivo, rat", "quoted_text": "Dosing solutions were prepared in 20% DMSO+80% PEG. Fourteen days after the initiation of treatment, animals were sacrificed and tissue weights were recorded. Body weights were measured on day 1 and at the time of sacrifice. Tissue weights were normalized to body weight and represented as percent change from vehicle-treated animals."}, "hAR-LBD (633-919)": {"target": "T2, hAR-LBD (633-919) (Homo sapiens, UniProt P10275)", "T2 construct": "GST (N); made in house", "T2 sequence (P10275 634-920)": "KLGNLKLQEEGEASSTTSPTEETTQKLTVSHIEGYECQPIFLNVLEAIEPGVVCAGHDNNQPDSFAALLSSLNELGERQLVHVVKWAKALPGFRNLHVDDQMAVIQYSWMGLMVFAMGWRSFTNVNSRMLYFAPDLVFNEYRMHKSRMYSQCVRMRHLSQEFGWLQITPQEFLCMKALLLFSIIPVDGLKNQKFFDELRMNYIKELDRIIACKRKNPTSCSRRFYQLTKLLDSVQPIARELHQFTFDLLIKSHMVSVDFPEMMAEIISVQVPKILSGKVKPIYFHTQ", "assay": "Ligand binding assay, GST-AR-LBD with [3H]mibolerone", "quoted_text": "Objective: To determine SARDs binding affinity to the AR-LBD.\nNon-specific binding was then subtracted from total binding to determine specific binding and non-linear regression for ligand binding curve with one site saturation to determine the Kd of mibolerone.\nFollowing incubation, the ligand bound AR-LBD complex was isolated using Bio Gel HT® hydroxyapatite, washed and counted in a scintillation counter after adding scintillation cocktail."}, "AR wildtype (wt)": {"target": "AR wildtype (wt) (Homo sapiens, UniProt P10275)", "sequence (P10275 whole entry)": "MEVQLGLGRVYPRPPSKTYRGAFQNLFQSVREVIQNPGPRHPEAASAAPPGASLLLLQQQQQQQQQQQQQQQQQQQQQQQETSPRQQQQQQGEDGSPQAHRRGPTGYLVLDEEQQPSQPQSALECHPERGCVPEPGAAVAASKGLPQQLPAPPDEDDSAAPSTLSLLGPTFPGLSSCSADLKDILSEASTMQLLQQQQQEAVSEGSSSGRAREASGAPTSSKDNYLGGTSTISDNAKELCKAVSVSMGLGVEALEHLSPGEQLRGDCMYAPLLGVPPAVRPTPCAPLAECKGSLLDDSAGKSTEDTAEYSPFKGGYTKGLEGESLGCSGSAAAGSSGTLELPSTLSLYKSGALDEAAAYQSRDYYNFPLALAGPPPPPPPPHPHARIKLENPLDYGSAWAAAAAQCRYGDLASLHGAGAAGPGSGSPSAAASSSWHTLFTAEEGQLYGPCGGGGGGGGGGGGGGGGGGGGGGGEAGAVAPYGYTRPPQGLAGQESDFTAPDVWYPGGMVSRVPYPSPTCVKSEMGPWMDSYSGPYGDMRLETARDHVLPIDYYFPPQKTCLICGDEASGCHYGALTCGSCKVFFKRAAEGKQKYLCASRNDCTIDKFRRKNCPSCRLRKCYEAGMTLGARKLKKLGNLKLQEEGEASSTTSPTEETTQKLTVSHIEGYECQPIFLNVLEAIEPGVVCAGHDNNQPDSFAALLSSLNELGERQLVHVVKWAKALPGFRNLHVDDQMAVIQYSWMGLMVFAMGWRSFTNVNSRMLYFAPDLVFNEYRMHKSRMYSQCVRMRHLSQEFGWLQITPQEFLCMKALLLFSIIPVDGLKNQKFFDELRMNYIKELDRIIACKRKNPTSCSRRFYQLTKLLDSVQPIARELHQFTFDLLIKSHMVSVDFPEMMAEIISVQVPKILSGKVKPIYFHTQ", "assay": "Transactivation assay with wt AR (GRE-LUC luciferase)", "type": "cell-based", "quoted_text": "COS7 cells were transfected with 0.25 μg GRE-LUC, 0.01 g CMV-renilla LUC, and 25 ng CMV-hAR using Lipofectamine in OptiMEM® medium. […] Firefly luciferase values were normalized to renilla luciferase values.\nFirefly luciferase values were normalized to renilla luciferase values.\nHuman AR cloned into CMV vector backbone was used for the transactivation study. HEK-293 cells were plated at 120,000 cells per well of a 24 well plate in DME+5% csFBS. […] Data are represented as IC50 obtained from four parameter logistics curve."}, "full length AR": {"test_system": "full length AR", "assay": "LNCaP or AD1 degradation (full length AR, Western blot)", "type": "cell-based", "quoted_text": "The numbers under each lane represents the % change from vehicle. The bands were quantified using ImageJ® software. For each lane, the AR band was divided by GAPDH band and the % difference from vehicle was calculated and represented under each lane. The numbers shown are 0 (no degradation) or represented as decreases in AR levels normalized for GAPDH levels (some values represented as positive but still indicate degradation).\nMethod: LNCaP or AD1 cells expressing full length AR were plated at 750,000-1,000,000 cells/well of a 6 well plate in growth medium (RPMI+10% FBS). Twenty four hours after plating, medium was changed to RPMI+1% csFBS without phenol red and maintained in this medium for 2 days. […] Protein was extracted using salt-containing lysis buffer with three freeze-thaw cycles. Protein concentration was estimated and five microgram of total protein was loaded on a SDS-PAGE, fractionated, and transferred to a PVDF membrane. […]\nThe numbers under each lane represents the % change from vehicle. The bands were quantified using ImageJ software. For each lane, the AR band was divided by GAPDH band and the % difference from vehicle was calculated and represented under each lane The numbers shown are 0 (no degradation) or represented as decreases in AR levels normalized for GAPDH levels (some values represented as positive but still indicate degradation)."}, "[5]": {"conditions": "Table 2, rats, 20 mg/kg daily for 13 days"}, "[6]": {"conditions": "20 mg/kg Hershberger experiment"}}, "note": "Values joined by “and” are separate entries in the source; they are usually repeats but may differ in a detail not shown here. Equal values may be shown once. “Also recorded” adds a separate entry of the source."}
{"smiles": "C[C@](O)(Cn1cc(F)cn1)C(=O)Nc1ccc(C#N)c(C(F)(F)F)c1.O=C(O)C(O)C(O)C(=O)O", "note": "[1002 tartarate]", "values": [{"measurement": "Serum conc.", "setting": "[1]; [5]", "result": 12.4, "unit": "nM"}]}
{"smiles": "C[C@](O)(Cn1cc(C#N)cn1)C(=O)Nc1ccc(C#N)c(C(F)(F)F)c1", "note": "[Compound 1048]", "values": [{"measurement": "RLM Metabolism (H.L. min)", "setting": "[2]", "result": 86, "unit": "min"}, {"measurement": "HLM Metabolism (H.L. min)", "setting": "[3]", "result": 400, "unit": "min"}]}
{"smiles": "C[C@](O)(Cn1cc(F)cn1)C(=O)Nc1ccc(C#N)c(C(F)(F)F)c1", "note": "[Compound 1002]", "values": [{"measurement": "Serum conc.", "setting": "[1]; [5]", "result": 9.3, "unit": "nM"}]}
{"smiles": "C[C@](O)(Cn1cc(C(F)(F)F)cn1)C(=O)Nc1ccc(C#N)c(C(F)(F)F)c1", "note": "[Compound 1017]", "values": [{"measurement": "RLM Metabolism (H.L. min)", "setting": "[2]", "result": 400, "unit": "min"}, {"measurement": "HLM Metabolism (H.L. min)", "setting": "[3]", "result": 400, "unit": "min"}]}
{"smiles": "C[C@](O)(Cn1cc(Br)c(F)n1)C(=O)Nc1ccc(C#N)c(C(F)(F)F)c1", "note": "[Compound 1058, (S)-3-(4-Bromo-3-fluoro-1H-pyrazol-1-yl)-N-(4-cyano-3-(trifluoromethyl)phenyl)-2-hydroxy-2-methylpropanamide]", "values": [{"measurement": "RLM Metabolism (H.L. min)", "setting": "[2]", "result": 400, "unit": "min"}, {"measurement": "HLM Metabolism (H.L. min)", "setting": "[3]", "result": 138, "unit": "min"}]}
{"smiles": "C[C@](O)(Cn1cc(Cl)c(Br)n1)C(=O)Nc1ccc(C#N)c(C(F)(F)F)c1", "note": "[Compound 1066]", "values": [{"measurement": "RLM Metabolism (H.L. min)", "setting": "[2]", "result": 300, "unit": "min"}, {"measurement": "HLM Metabolism (H.L. min)", "setting": "[3]", "result": 319, "unit": "min"}]}
{"smiles": "CC(=O)[C@H]1CC[C@H]2[C@@H]3CCC4=CC(=O)CC[C@]4(C)[C@H]3CC[C@]12C", "note": "[progesterone]", "values": [{"measurement": "PR agonism, in words", "setting": "PR", "result": "potent and full efficacy agonist activity"}]}
{"smiles": "C[C@](O)(Cn1cc(F)cn1)C(=O)Nc1cnc(C#N)c(C(F)(F)F)c1", "note": "[Compound 1022]", "values": [{"measurement": "RLM Metabolism (H.L. min)", "setting": "[2]", "result": 78, "unit": "min"}, {"measurement": "HLM Metabolism (H.L. min)", "setting": "[3]", "result": 82, "unit": "min"}, {"measurement": "Serum conc.", "setting": "[1]; [5]", "result": 64, "unit": "nM"}, {"measurement": "Serum conc.", "setting": "[1]; Table 4, rats, 20 mg/kg", "result": 33, "unit": "nM"}]}
{"smiles": "CNC(=O)c1ccc(N2C(=S)N(c3ccc(C#N)c(C(F)(F)F)c3)C(=O)C2(C)C)cc1F", "note": "[Enzalutamide, reference compound]", "values": [{"measurement": "Seminal vesicles weight reduction compared to 1002, in words", "setting": "[4]; enzalutamide 30 mg/kg", "result": "marginally improved"}]}
{"smiles": "C[C@](O)(Cn1cc(C#N)cn1)C(=O)Nc1cnc(C#N)c(C(F)(F)F)c1", "note": "[Compound 1065]", "values": [{"measurement": "(Prostate) % diff", "setting": "[4]; [6]", "result": ".58%"}, {"measurement": "(S.V.) % diff", "setting": "[4]; [6]", "result": ".88%"}, {"measurement": "Seminal vesicles weight reduction / in vivo AR antagonism, in words", "setting": "[4]; 20 mg/kg, compared to 1002 or castration", "result": "full AR antagonism in vivo; also recorded: reached castration levels; also recorded: significantly improved efficacy"}, {"measurement": "Prostate weight reduction, improved efficacy compared to 1002", "setting": "[4]; FIGS. 7C and 7D", "result": "approximately 45%"}, {"measurement": "RLM Metabolism (H.L. min)", "setting": "[2]", "result": 84, "unit": "min"}, {"measurement": "HLM Metabolism, % metabolized after 60 min", "setting": "[3]; after 60 min", "result": 10, "unit": "%"}, {"measurement": "HLM Metabolism (H.L. min)", "setting": "[3]", "result": "STABLE"}, {"measurement": "Serum conc.", "setting": "[1]; Table 4, rats, 20 mg/kg", "result": 561, "unit": "nM"}, {"measurement": "Conc of 1065", "setting": "[1]; 1 mg/kg, 1 mg/kg", "result": "81.58 and 87.25 and 120.1244 and 134.5505 and 129.9323"}, {"measurement": "Conc of 1065", "setting": "[1]; 5 mg/kg, 5 mg/kg", "result": "630.4879 and 691.1901 and 485.4264 and 967.3936 and 798.7984"}, {"measurement": "Conc of 1065", "setting": "[1]; 10 mg/kg, 10 mg/kg", "result": "637.641 and 915.1312 and 824.8076 and 681.9936 and 795.917"}, {"measurement": "Conc of 1065", "setting": "[1]; 20 mg/kg, 20 mg/kg", "result": "1286.902 and 1298.179 and 1360.687 and 1397.834 and 1193.986"}]}
{"smiles": "C[C@](O)(Cn1ccc2cc(F)ccc21)C(=O)Nc1ccc(C#N)c(C(F)(F)F)c1", "note": "[Compound 11]", "values": [{"measurement": "HLM Metabolism (H.L. min)", "setting": "[3]", "result": 6, "unit": "min"}]}
{"smiles": "C[C@@H](Cn1cc(F)cn1)NC(=O)c1ccc(C#N)c(C(F)(F)F)c1", "note": "[Compound 1068, (S)-4-Cyano-N-(1-(4-fluoro-1H-pyrazol-1-yl)propan-2-yl)-3-(trifluoromethyl)benzamide]", "values": [{"measurement": "wtAR Binding Ki (nM) (DHT = 1 nM)", "setting": "hAR-LBD (633-919)", "result": "no binding"}, {"measurement": "IC50", "setting": "AR wildtype (wt)", "result": 417, "unit": "nM"}, {"measurement": "SARD Activity Full Length % inhibition at 1 μM", "setting": "full length AR; first of two values in the cell, 1 μM", "result": 62, "unit": "%"}, {"measurement": "SARD Activity Full Length % inhibition at 10 μM", "setting": "full length AR; second of two values in the cell, 10 μM", "result": 96, "unit": "%"}]}
